In PubChem BioAssay AID200 (DTP/NCI, 2004):
Several values for one entry are separate records, joined by “and”; a condition that tells them apart may be missing. Equal values may be shown once. Toxic doses and inconclusive results are not listed. Rule for the calls: active = survival T/C of 150% or more; inactive = T/C below 125% in these data.

System: B6C3F1 mice, B16 melanoma ip, median survival T/C
Test: NCI In Vivo Anticancer Drug Screen. Data for tumor model B16 Melanoma (intraperitoneal) in B6C3F1 mice
Conditions: endpoint: median survival time, schedule: Q01DX009 (ip), higher = longer survival
Outline: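 Values are T/C ratios: the measurement in treated animals divided by that in vehicle-treated controls, using survival or tumor size in mice carrying transplantable tumors.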

[1] = dose: 50.0 mg/kg/injection, vehicle: saline
[2] = dose: 100.0 mg/kg/injection, vehicle: saline
[3] = dose: 200.0 mg/kg/injection, vehicle: saline
[4] = dose: 25.0 mg/kg/injection, vehicle: saline
[5] = dose: 12.5 mg/kg/injection, vehicle: Klucel (hydroxypropylcellulose) (HPC)
[6] = dose: 25.0 mg/kg/injection, vehicle: Klucel (hydroxypropylcellulose) (HPC)
[7] = dose: 50.0 mg/kg/injection, vehicle: Klucel (hydroxypropylcellulose) (HPC)
[8] = dose: 100.0 mg/kg/injection, vehicle: Klucel (hydroxypropylcellulose) (HPC)
[9] = dose: 200.0 mg/kg/injection, vehicle: Klucel (hydroxypropylcellulose) (HPC)
[10] = dose: 400.0 mg/kg/injection, vehicle: Klucel (hydroxypropylcellulose) (HPC)
[11] = dose: 12.5 mg/kg/injection, vehicle: saline with Tween-80
[12] = dose: 25.0 mg/kg/injection, vehicle: saline with Tween-80
[13] = dose: 50.0 mg/kg/injection, vehicle: saline with Tween-80
[14] = dose: 100.0 mg/kg/injection, vehicle: saline with Tween-80
[15] = dose: 50.0 mg/kg/injection, vehicle: saline + Tween-80 + alcohol
[16] = dose: 100.0 mg/kg/injection, vehicle: saline + Tween-80 + alcohol

Measured: T/C

Nc1n[n+](-c2ccc(Cl)cc2)no1
inactive: dose: 3.12 mg/kg/injection, vehicle: water 109 % of control | dose: 6.25 mg/kg/injection, vehicle: water 102 % of control and 107 % of control | dose: 12.5 mg/kg/injection, vehicle: water 103 % of control | dose: 25.0 mg/kg/injection, vehicle: water 111 % of control and 123 % of control | dose: 50.0 mg/kg/injection, vehicle: water 116 % of control

COC(=O)c1[nH]c(=O)[nH]c(=O)c1F
inactive: [1] 98 % of control | [2] 94 % of control | [3] 100 % of control

CC(=O)OC1C2CCC3C(C)(O)C4CC(O)C(C)(C)C4(O)C(O)CC13CC2(C)O (stereo not drawn)
inactive: dose: 0.25 mg/kg/injection, vehicle: Klucel (hydroxypropylcellulose) (HPC) 111 % of control | dose: 0.5 mg/kg/injection, vehicle: Klucel (hydroxypropylcellulose) (HPC) 100 % of control | dose: 1.0 mg/kg/injection, vehicle: Klucel (hydroxypropylcellulose) (HPC) 121 % of control

COc1cc(O)c2c(O)c3c(c4c2c1[C@]1(C4)C(C)=CCCC1(C)C)[C@H](O)[C@@]1(O)CC(=O)C(C(N)=O)=C(O)[C@@]1(O)C3=O
inactive: dose: 1.56 mg/kg/injection, vehicle: saline with Tween-80 90 % of control | dose: 3.12 mg/kg/injection, vehicle: saline with Tween-80 106 % of control | dose: 6.25 mg/kg/injection, vehicle: saline with Tween-80 117 % of control

O=[N+]([O-])O.[Ga]
inactive: dose: 4.0 mg/kg/injection, vehicle: saline 105 % of control | dose: 4.0 mg/kg/injection, vehicle: water 99 % of control | dose: 8.0 mg/kg/injection, vehicle: saline 98 % of control | dose: 8.0 mg/kg/injection, vehicle: water 95 % of control | dose: 16.0 mg/kg/injection, vehicle: saline 101 % of control | dose: 16.0 mg/kg/injection, vehicle: water 100 % of control | [4] 101 % of control | dose: 32.0 mg/kg/injection, vehicle: saline 95 % of control | dose: 32.0 mg/kg/injection, vehicle: water 97 % of control | [1] 100 % of control | dose: 64.0 mg/kg/injection, vehicle: saline 91 % of control | dose: 64.0 mg/kg/injection, vehicle: water 96 % of control

Nc1ncc(S(=O)(=O)c2ccc([N+](=O)[O-])cc2)c(N)n1
inactive: dose: 75.0 mg/kg/injection, vehicle: saline 100 % of control | dose: 150.0 mg/kg/injection, vehicle: saline 102 % of control | dose: 300.0 mg/kg/injection, vehicle: saline 87 % of control

C[Si](C)(C)OSc1ccccc1[N+](=O)[O-]
inactive: [5] 108 % of control | [6] 110 % of control | [7] 113 % of control | [8] 112 % of control | [9] 103 % of control | [10] 89 % of control

COc1ccc2ccccc2c1C1NC(=O)c2ccccc2N1 (stereo not drawn)
inactive: [5] 96 % of control | [6] 100 % of control | [7] 96 % of control | [8] 100 % of control | [9] 104 % of control | [10] 102 % of control

O=C(O)[C@H](Cc1ccccc1)N1C(=O)c2ccccc2C1=O
inactive: dose: 50.0 mg/kg/injection, vehicle: DMSO 96 % of control | dose: 100.0 mg/kg/injection, vehicle: DMSO 99 % of control | dose: 200.0 mg/kg/injection, vehicle: DMSO 99 % of control | dose: 800.0 mg/kg/injection, vehicle: DMSO 88 % of control

CC(C)(C)OC(=O)N(C=O)C(Cc1c[nH]c2ccccc12)C(=O)O (stereo not drawn)
inactive: [8] 94 % of control | [9] 88 % of control | [10] 86 % of control

CC[n+]1ccc2c(C)c3[nH]c4ccc(O)cc4c3c(C)c2c1
inactive: dose: 0.39 mg/kg/injection, vehicle: saline 110 % of control and 114 % of control | dose: 0.78 mg/kg/injection, vehicle: saline 122 % of control | dose: 1.56 mg/kg/injection, vehicle: saline 123 % of control

CC1[C@@H]2CC=C3[C@H]4CCC5Cc6nc7c(nc6C[C@@]5(C)C4CC(=O)[C@]32CO[C@]12OC(C)(C)CC2O)CC1CC[C@@H]2C3=C[C@H]4O[C@@]5(O[C@@](C)(CO)C[C@@H]5O)C(C)[C@@]4(O)[C@]3(C)[C@@H](O)CC2[C@]1(C)C7 (stereo partly drawn)
inactive: dose: 6.25 micrograms/kg/injection, vehicle: saline + alcohol 101 % of control | dose: 12.5 micrograms/kg/injection, vehicle: saline + alcohol 98 % of control | dose: 25.0 micrograms/kg/injection, vehicle: saline + alcohol 98 % of control | dose: 50.0 micrograms/kg/injection, vehicle: saline + alcohol 102 % of control

CN=C(N)N/N=C(\C)c1ccc2c(c1)Cc1ccccc1-2
inactive: [11] 111 % of control | [12] 118 % of control | [13] 119 % of control | [14] 122 % of control

O=C1NCC(Br)C(=O)N1 (stereo not drawn)
inactive: dose: 6.25 mg/kg/injection, vehicle: saline + Tween-80 + alcohol 90 % of control | dose: 12.5 mg/kg/injection, vehicle: saline + Tween-80 + alcohol 99 % of control and 101 % of control | [11] 102 % of control | dose: 25.0 mg/kg/injection, vehicle: saline + Tween-80 + alcohol 100 % of control and 106 % of control | [12] 94 % of control and 105 % of control | [15] 114 % of control and 105 % of control | [13] 114 % of control | [16] 109 % of control and 100 % of control | [14] 116 % of control | dose: 200.0 mg/kg/injection, vehicle: saline + Tween-80 + alcohol 96 % of control

CN(CN1C(=O)CCC1=O)CN1C(=O)CCC1=O
inactive: [4] 98 % of control | [1] 101 % of control | [2] 105 % of control | [3] 115 % of control

NC(=O)CC(N)C(=O)O (stereo not drawn)
inactive: [13] 108 % of control | [14] 100 % of control | dose: 200.0 mg/kg/injection, vehicle: saline with Tween-80 100 % of control | dose: 400.0 mg/kg/injection, vehicle: saline with Tween-80 105 % of control | dose: 800.0 mg/kg/injection, vehicle: saline with Tween-80 120 % of control | dose: 1600.0 mg/kg/injection, vehicle: saline with Tween-80 118 % of control

O=[N+]([O-])c1nccn1CC(O)CO (stereo not drawn)
inactive: dose: 12.5 mg/kg/injection, vehicle: saline 91 % of control and 101 % of control | [4] 102 % of control and 107 % of control | [1] 95 % of control and 97 % of control | [2] 111 % of control and 93 % of control | [3] 95 % of control and 98 % of control | dose: 400.0 mg/kg/injection, vehicle: saline 91 % of control and 107 % of control

O=S(=O)(O)C1=CC(=N\Cl)/C=CC/1=N/Cl
inactive: [15] 100 % of control | [16] 100 % of control

CNC[C@@H](O)c1ccc(O)c(O)c1
inactive: dose: 0.75 mg/kg/injection, vehicle: suspension in saline 114 % of control | dose: 1.5 mg/kg/injection, vehicle: suspension in saline 115 % of control | dose: 3.0 mg/kg/injection, vehicle: suspension in saline 99 % of control

CCOc1ccc(NC(=O)C(C(C)N2CCCCC2)N2CCCCC2)cc1 (stereo not drawn)
inactive: [11] 102 % of control | [12] 94 % of control | [13] 93 % of control
